Reference: US7220420B2, “Hepatitis C virus-derived peptides capable of inducing cytotoxic T lymphocyte responses” (The Scripps Research Institute, priority 1994, dated 2007)
Like-named read-outs stand apart in the source and are kept apart here. No end group written: not given here.

Columns and labels:
[1] = tested on: peptide-pulsed HLA-A2 matched JY EBV-BCL cells
[2] = tested on: peptide pulsed HLA-A2 matched JY EBV-BCL target cells; type: cell-based, human

In the case of `CC(C)C[C@H](NC(=O)[C@H](C)NC(=O)[C@H](CC(C)C)NC(=O)[C@@H](N)CC(C)C)C(=O)N[C@@H](CC(C)C)C(=O)N[C@@H](CO)C(=O)N[C@@H](CS)C(=O)N[C@@H](CC(C)C)C(=O)N[C@H](C(=O)N[C@H](C(=O)O)C(C)C)[C@@H](C)O` [SEQ ID NO:2], the “peptide specific cytotoxic activity %” value ([1]; subject C-2, 2 weeks, E/T 80) is reported as 29%, the “peptide specific cytotoxic activity %” value ([1]; subject C-2, 3 weeks, E/T 25) is reported as 37% and the “peptide specific cytotoxic activity %” value ([1]; subject C-2, 4 weeks, E/T 7) is reported as 33%. The “peptide specific cytotoxic activity %” value ([1]; subject C-2, 4 weeks, E/T 21) was 64%, the “peptide specific cytotoxic activity %” value ([1]; subject C-2, 4 weeks, E/T 64) was 81% and the “peptide specific cytotoxic activity %” value ([1]; subject C-2, 5 weeks, E/T 2) was 24%. The “peptide specific cytotoxic activity %” value ([1]; subject C-2, 5 weeks, E/T 6) was 57%, the “peptide specific cytotoxic activity %” value ([1]; subject C-2, 5 weeks, E/T 18) was 60% and the “peptide specific cytotoxic activity %” value ([1]; subject C-3, 2 weeks, E/T 80) was 19%. For the same compound, the “peptide specific cytotoxic activity %” value ([1]; subject C-3, 3 weeks, E/T 40) was 18%, the “peptide specific cytotoxic activity %” value ([1]; subject C-3, 4 weeks, E/T 4) was 20% and the “peptide specific cytotoxic activity %” value ([1]; subject C-3, 4 weeks, E/T 11) was 37%. For the same compound, the “peptide specific cytotoxic activity %” value ([1]; subject C-3, 4 weeks, E/T 33) was 60%, the “peptide specific cytotoxic activity %” value ([1]; subject C-3, 5 weeks, E/T 3) was 35% and the “peptide specific cytotoxic activity %” value ([1]; subject C-3, 5 weeks, E/T 10) was 52%. The “peptide specific cytotoxic activity %” value ([1]; subject C-3, 5 weeks, E/T 30) was 76%.
For LLCPAGHAV [SEQ ID NO:26], the “represents a CTL epitope (dagger mark)” value ([2]; panel of 53 peptides, assay of Example 2) was “LLCPAGHAV^†” and the “lysis of target cells by peptide specific CTL lines (FIG. 2)” value ([1]; subject C-3, lines four weeks in culture, varying effector/target cell ratio) was “recognize and lyse HLA A2-matched EBV-BCL in a dose dependent fashion”.
For ILDSFDPLV [SEQ ID NO:42], the “peptide specific cytotoxic activity %” value ([1]; subject C-2, Exp I, 2 weeks, E/T 40) was 29%, the “peptide specific cytotoxic activity %” value ([1]; subject C-2, Exp II (PBMC collected two months after Exp I), 2 weeks, E/T 40) was 2% and the “peptide specific cytotoxic activity %” value ([1]; subject C-2, Exp II, 3 weeks, E/T 25) was 3%. The “peptide specific cytotoxic activity %” value ([1]; subject C-2, Exp II, 4 weeks, E/T 10) was 10%, the “peptide specific cytotoxic activity %” value ([1]; subject C-2, Exp II, 4 weeks, E/T 29) was 29% and the “peptide specific cytotoxic activity %” value ([1]; subject C-2, Exp II, 4 weeks, E/T 88) was 59%. The “peptide specific cytotoxic activity %” value ([1]; subject C-2, Exp II, 5 weeks, E/T 6) was 20%, the “peptide specific cytotoxic activity %” value ([1]; subject C-2, Exp II, 5 weeks, E/T 19) was 52% and the “peptide specific cytotoxic activity %” value ([1]; subject C-2, Exp II, 5 weeks, E/T 56) was 83%.
In the case of LLFNILGGWV [SEQ ID NO:35], the “represents a CTL epitope (dagger mark)” value [2] is reported as “LLFNILGGWV^†”.
